Source: US9260429B2, “Pyrido[3,4-B]indoles and methods of use” (Medivation Technologies, Inc., priority 2008, dated 2016)
Read-outs that look alike come from different tables or passages of the source.

Tests used:
[1] = target: T1, human recombinant dopamine D2L receptor (Homo sapiens, UniProt P14416); experiment: Dopamine D2L radioligand binding ([3H]Spiperone); details: for inhibition at 3 µM: compound concentration 3 μM; for inhibition at 10 µM: compound concentration 10 μM
T1 construct: expressed in transfected cells; host or cells: CHO cells
T1 sequence (P14416 whole entry): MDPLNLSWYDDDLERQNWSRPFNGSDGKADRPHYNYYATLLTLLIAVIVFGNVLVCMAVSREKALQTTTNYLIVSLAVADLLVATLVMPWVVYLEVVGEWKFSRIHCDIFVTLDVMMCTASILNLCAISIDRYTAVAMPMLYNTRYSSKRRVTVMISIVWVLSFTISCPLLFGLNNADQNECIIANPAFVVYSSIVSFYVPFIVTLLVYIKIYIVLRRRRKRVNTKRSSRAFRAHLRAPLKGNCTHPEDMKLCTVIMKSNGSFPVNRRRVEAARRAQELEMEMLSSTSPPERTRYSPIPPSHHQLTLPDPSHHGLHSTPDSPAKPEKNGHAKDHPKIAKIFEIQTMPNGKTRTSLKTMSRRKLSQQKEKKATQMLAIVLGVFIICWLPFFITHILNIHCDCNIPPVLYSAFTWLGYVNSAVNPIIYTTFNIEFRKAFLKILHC
Method in brief: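 CHO-expressed receptor in 50 mM Tris-HCl pH 7.4 with ascorbic acid, 0.001% BSA, 150 mM NaCl; 0.16 nM [3H]spiperone, 120 min at 25 °C; nonspecific binding with haloperidol.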

[2] = target: T2, human recombinant serotonin (5-Hydroxytryptamine) 5-HT7 receptor (Homo sapiens, UniProt P34969); experiment: Serotonin 5-HT7 radioligand binding ([3H]LSD); details: for inhibition at 1 µM: 2 h, read-out: Percent Inhibition of ligand binding Serotonin (1 μM ligand concentration) 5-HT7; for inhibition at 0.003 µM: compound concentration 3 nM; for inhibition at 0.003 µM / inhibition at 0.01 µM / inhibition at 0.03 µM / inhibition at 0.1 µM / inhibition at 0.3 µM: read-out: Percentage inhibition of ligand binding to 5-HT7 receptor; for inhibition at 0.01 µM: compound concentration 10 nM; for inhibition at 0.03 µM: compound concentration 0.03 μM; for inhibition at 0.1 µM: compound concentration 0.1 μM; for inhibition at 0.3 µM: compound concentration 0.3 μM
T2 construct: expressed in transfected cells; host or cells: CHO cells
T2 sequence (P34969 whole entry): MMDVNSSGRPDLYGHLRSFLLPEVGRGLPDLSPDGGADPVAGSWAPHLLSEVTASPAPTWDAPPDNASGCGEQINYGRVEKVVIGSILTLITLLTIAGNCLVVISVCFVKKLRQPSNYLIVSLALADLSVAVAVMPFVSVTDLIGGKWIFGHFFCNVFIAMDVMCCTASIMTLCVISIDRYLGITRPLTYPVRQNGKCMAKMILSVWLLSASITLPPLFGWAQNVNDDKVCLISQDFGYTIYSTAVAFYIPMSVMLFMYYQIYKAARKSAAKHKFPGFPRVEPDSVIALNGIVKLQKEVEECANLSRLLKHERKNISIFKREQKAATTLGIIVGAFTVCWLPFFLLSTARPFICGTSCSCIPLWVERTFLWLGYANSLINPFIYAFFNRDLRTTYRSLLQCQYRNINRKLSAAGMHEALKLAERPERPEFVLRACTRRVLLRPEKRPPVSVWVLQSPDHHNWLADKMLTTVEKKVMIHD
Method in brief: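 CHO-expressed human 5-HT7 receptor with 5.5 nM [3H]LSD in 50 mM Tris-HCl pH 7.4, 10 mM MgCl2, 0.5 mM EDTA, 2 h at 25 °C; nonspecific binding defined with serotonin. Filtration and counting. Compounds at ≤1 μM, 1% DMSO; % inhibition of specific binding.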

[3] = 2 h, 1 μM ligand conc., read-out: Percent Inhibition of ligand binding Dopamine (1 μM ligand conc.) D2L
[4] = compound concentration 1 μM, read-out: Percentage inhibition of ligand binding to D2L receptor
[5] = read-out: Percentage inhibition of ligand binding to D2L receptor

| SMILES | inhibition at 1 µM [1, 3] | also measured |
| --- | --- | --- |
| Cc1ccc2c(c1)c1c(n2CCc2ccc(C(F)(F)F)nc2)CN(C)CC1 [Compound 5, 9-(2-(6-(trifluoromethyl)pyridin-3-yl)ethyl)-2,3,4,9-tetrahydro-2,6-dimethyl-1H-pyrido[3,4-b]indole] | 0% | – |
| CC(C)CCN(C)C(=O)Cn1c2c(c3cc(Cl)ccc31)CCN(C)C2 [Compound 14, 2-(6-chloro-1,2,3,4-tetrahydro-2-methylpyrido[3,4-b]indol-9-yl)-N-isopentyl-N-methylacetamide] | 6% | – |
| CN1CCc2c(n(CC(=O)Nc3ccc(F)cc3)c3ccc(Cl)cc23)C1 [Compound 15, 2-(6-chloro-1,2,3,4-tetrahydro-2-methylpyrido[3,4-b]indol-9-yl)-N-(4-fluorophenyl)acetamide] | -5% | – |
| CN1CCc2c(n(CC(=O)N(C)C)c3ccc(Cl)cc23)C1 [Compound 16, 2-(6-chloro-1,2,3,4-tetrahydro-2-methylpyrido[3,4-b]indol-9-yl)-N,N-dimethylacetamide] | -7% | – |
| CN1CCc2c(n(CC(=O)NC3CCCCC3)c3ccc(Cl)cc23)C1 [Compound 17, 2-(6-chloro-1,2,3,4-tetrahydro-2-methylpyvrido[3,4-b]indol-9-yl)-N-cyclohexylacetamide] | -3% | – |
| CN1CCc2c(n(CC(=O)N(C)C3CCCCC3)c3ccc(Cl)cc23)C1 [Compound 18, 2-(6-chloro-1,2,3,4-tetrahydro-2-methylpyrido[3,4-b]indol-9-yl)-N-cyclohexyl-N-methylacetamide] | 0% | – |
| COC(=O)Cn1c2c(c3cc(C)ccc31)CCN(C)C2 [Compound 21, methyl 2-(1,2,3,4-tetrahydro-2,6-dimethylpyrido[3,4-b]indol-9-yl)acetate] | -1% | – |
| CN1CCc2c(n(CCCc3ccccc3)c3ccc(Cl)cc23)C1 [Compound 29, 6-chloro-2,3,4,9-tetrahydro-2-methyl-9-(3-phenylpropyl)-1H-pyrido[3,4-b]indole] | 24% | – |
| CN1CCc2c(n(CCN3CCCCC3)c3ccc(Cl)cc23)C1 [Compound 34, 6-chloro-2,3,4,9-tetrahydro-2-methyl-9-(2-(piperidin-1-yl)ethyl)-1H-pyrido[3,4-b]indole] | 9% | – |
| CN1CCc2c(n(CCC3CCCC3)c3ccc(Cl)cc23)C1 [Compound 35, 6-chloro-9-(2-cyclopentylethyl)-2,3,4,9-tetrahydro-2-methyl-1H-pyrido[3,4-b]indole] | 3% | – |
| CN1CCc2c(n(CC(=O)N3CCCC3)c3ccc(Cl)cc23)C1 [Compound 40, 2-(6-chloro-1,2,3,4-tetrahydro-2-methylpyrido[3,4-b]indol-9-yl)-1-(pyrrolidin-1-yl)ethanone] | -11% | – |
| Cc1ccc2c(c1)c1c(n2CCC(=O)N2CCCCC2)CN(C)CC1 [Compound 43, 3-(1,2,3,4-tetrahydro-2,6-dimethylpyrido[3,4-b]indol-9-yl)-1-(piperidin-1-yl)propan-1-one] | -8% | – |
| CN1CCc2c(n(CCCC(=O)N3CCCCC3)c3ccc(Cl)cc23)C1 [Compound 44, 4-(6-chloro-1,2,3,4-tetrahydro-2-methylpyrido[3,4-b]indol-9-yl)-1-(piperidin-1-yl)butan-1-one] | 8% | – |
| CN1CCc2c(n(CC(=O)O)c3ccc(Cl)cc23)C1 [Compound 52, 2-(6-chloro-1,2,3,4-tetrahydro-2-methylpyrido[3,4-b]indol-9-yl)acetic acid] | 1% | – |
| Cc1ccc2c(c1)c1c(n2CC(=O)O)CN(C)CC1 [Compound 53, 2-(1,2,3,4-tetrahydro-2,6-dimethylpyrido[3,4-b]indol-9-yl)acetic acid] | 6% | – |
| COC(=O)Cn1c2c(c3cc(Cl)ccc31)CCN(C)C2 [Compound 54, methyl 2-(6-chloro-2-methyl-3,4-dihydro-1H-pyrido[3,4-b]indol-9(2H)-yl)acetate] | -16% | – |
| CN1CCc2c(n(CC(=O)N3CCNCC3)c3ccc(Cl)cc23)C1 [Compound 55, 2-(6-chloro-2-methyl-3,4-dihydro-1H-pyrido[3,4-b]indol-9(2H)-yl)-1-(piperazin-1-yl)ethanone] | -6% | – |
| Cc1ccc(CCCn2c3c(c4cc(Cl)ccc42)CCN(C)C3)cn1 [Compound 56, 6-chloro-2-methyl-9-(3-(6-methylpyridin-3-yl)propyl)-2,3,4,9-tetrahydro-1H-pyrido[3,4-b]indole] | 9% | – |
| Cc1ccc2c(c1)c1c(n2CC(=O)N2CCCCC2)CN(C)CC1 [Compound 57, 2-(2,6-dimethyl-3,4-dihydro-1H-pyrido[3,4-b]indol-9(2H)-yl)-1-(piperidin-1-yl)ethanone] | 6% | – |

| SMILES | inhibition at 1 µM [1, 3] | also measured |
| --- | --- | --- |
| CN1CCc2c(n(CC(=O)N3CCCCC3)c3ccc(Cl)cc23)C1 [Compound 58, 2-(6-chloro-2-methyl-3,4-dihydro-1H-pyrido[3,4-b]indol-9(2H)-yl)-1-(piperidin-1-yl)ethanone] | -5% | – |
| CN1CCc2c(n(CC(O)c3ccccc3F)c3ccc(Cl)cc23)C1 (centres unmarked) [Compound 59, 2-(6-chloro-2-methyl-3,4-dihydro-1H-pyrido[3,4-b]indol-9(2H)-yl)-1-(2-fluorophenyl)ethanol] | 35% | – |
| Cc1ccc2c(c1)c1c(n2CC(O)c2ccccc2F)CN(C)CC1 (centres unmarked) [Compound 60, 2-(2,6-dimethyl-3,4-dihydro-1H-pyrido[3,4-b]indol-9(2H)-yl)-1-(2-fluorophenyl)ethanol] | 18% | – |
| Cc1ccc2c(c1)c1c(n2CC(C)(O)c2ccc(F)cc2)CN(C)CC1 (centres unmarked) [Compound 61, 1-(2,6-dimethyl-3,4-dihydro-1H-pyrido[3,4-b]indol-9(2H)-yl)-2-(4-fluorophenyl)propan-2-ol] | 41% | – |
| CN1CCc2c(n(CC(C)(O)c3ccc(F)cc3)c3ccc(Cl)cc23)C1 (centres unmarked) [Compound 62, 1-(6-chloro-2-methyl-3,4-dihydro-1H-pyrido[3,4-b]indol-9(2H)-yl)-2-(4-fluorophenyl)propan-2-ol] | 81% | – |
| COc1ccc(C(O)Cn2c3c(c4cc(C)ccc42)CCN(C)C3)cc1OC (centres unmarked) [Compound 66] | 9% | – |
| Cc1ccc2c(c1)c1c(n2CC(O)c2ccccc2)CN(C)CC1 (centres unmarked) [Compound 67] | 21% | – |
| COc1ccc(C(O)Cn2c3c(c4cc(Cl)ccc42)CCN(C)C3)cc1OC (centres unmarked) [Compound 70] | 0% | – |
| CN1CCc2c(n(CC(O)c3ccccc3)c3ccc(Cl)cc23)C1 (centres unmarked) [Compound 71] | 21% | – |
| Cc1ccc(C(O)Cn2c3c(c4cc(C)ccc42)CCN(C)C3)cc1 (centres unmarked) [Compound 72] | 24% | – |
| CCC1c2c(c3cc(Cl)ccc3n2CCc2ccc(F)cc2)CCN1C (centres unmarked) [Compound 78] | 11% | inhibition at 1 µM [2]: 99% |
| CCC1c2c(c3cc(Cl)ccc3n2CC(C)(O)c2ccc(F)cc2)CCN1C (centres unmarked) [Compound 79] | 2% | inhibition at 1 µM [2]: 85% |
| Cc1ccc(CCn2c3c(c4cc(Cl)ccc42)CCN(C)C3C)cn1 (centres unmarked) [Compound 80] | 5% | inhibition at 1 µM [2]: 82% |
| CC1c2c(c3cc(Cl)ccc3n2CCc2ccc(F)cc2)CCN1C (centres unmarked) [Compound 81] | 21% | inhibition at 1 µM [2]: 82% |
| C/C(=C\n1c2c(c3cc(Cl)ccc31)CCN(C)C2)c1ccc(F)cc1 [Compound 90, (E)-6-chloro-9-(2-(4-fluorophenyl)prop-1-enyl)-2-methyl-2,3,4,9-tetrahydro-1H-pyrido[3,4-b]indole] | 36% | inhibition at 0.003 µM [2]: -2%; inhibition at 0.01 µM [2]: 15%; inhibition at 0.03 µM [2]: 29%; inhibition at 0.1 µM [2]: 63%; inhibition at 0.3 µM [2]: 86%; inhibition at 1 µM [1, 4]: 39%; inhibition at 3 µM [1, 5]: 70%; inhibition at 10 µM [1, 5]: 91% |
| C/C(=C\n1c2c(c3cc(C)ccc31)CCN(C)C2)c1ccc(F)cc1 [Compound 91, (E)-9-(2-(4-fluorophenyl)prop-1-enyl)-2,6-dimethyl-2,3,4,9-tetrahydro-1H-pyrido[3,4-b]indole] | 27% | inhibition at 0.003 µM [2]: 19%; inhibition at 0.01 µM [2]: 36%; inhibition at 0.03 µM [2]: 53%; inhibition at 0.1 µM [2]: 83%; inhibition at 0.3 µM [2]: 87%; inhibition at 1 µM [1, 4]: 44%; inhibition at 3 µM [1, 5]: 64%; inhibition at 10 µM [1, 5]: 91% |
| Cc1ccc2c(c1)c1c(n2/C=C/c2ccccc2)CN(C)CC1 [Compound 92] | 47% | inhibition at 1 µM [1, 4]: 47%; inhibition at 3 µM [1, 5]: 72% |
| C/C(=C\n1c2c(c3cc(C)ccc31)CCN(C)C2)c1ccc(Cl)cc1 [Compound 97, 9-(2-(4-chlorophenyl)prop-1-enyl)-2,6-dimethyl-2,3,4,9-tetrahydro-1H-pyrido[3,4-b]indole] | 15% | inhibition at 1 µM [2]: 98% |
| C/C(=C\n1c2c(c3cc(Cl)ccc31)CCN(C)C2)c1ccc(Cl)cc1 [Compound 98, 6-chloro-9-(2-(4-chlorophenyl)prop-1-enyl)-2-methyl-2,3,4,9-tetrahydro-1H-pyrido[3,4-b]indole] | 32% | inhibition at 1 µM [2]: 94% |
